Assays:
CYP1A2 = CYP1A2 (Homo sapiens (Human), UniProt P05177); experiment: in vitro; assay type: in vitro ADME
Description: 5 derivatives were evaluated for in vitro metabolic stability in liver microsomes from three different species (human, dog, mouse) and for inhibitory activity against 5 representative cytochrome P450 enzymes (CYPs)(Table 3). In terms of liver microsomal stability, the 2′-pyridyl group is more suitable than the α-methyl-4′-pyridyl group as the terminal aromatic group at position 6, and the aminopyrimidyl group is better than the aminopyridyl group as a substituent at position 2.

CDK2/cyclin A = CDK2/cyclin A (Homo sapiens (Human), UniProt P24941); experiment: Kinome-wide profiling; assay type: biochemical; settings: read-out: % Residual Activity (mean)
CDK1/cyclin B = CDK1/cyclin B (Homo sapiens (Human), UniProt P06493); experiment: Kinome-wide profiling; assay type: biochemical; settings: read-out: % Residual Activity (mean)
CDK18/cyclin Y (PCTK3) = CDK18/cyclin Y (PCTK3) (Homo sapiens (Human), UniProt Q07002); experiment: Kinome-wide profiling; assay type: biochemical; settings: read-out: % Residual Activity (mean)
CDK1/cyclin A = CDK1/cyclin A (Homo sapiens (Human), UniProt P06493); experiment: Kinome-wide profiling; assay type: biochemical; settings: read-out: % Residual Activity (mean)
CHK2 = CHK2 (Homo sapiens (Human), UniProt O96017); experiment: Kinome-wide profiling; assay type: biochemical; settings: read-out: % Residual Activity (mean)
CDK1/cyclin E = CDK1/cyclin E (Homo sapiens (Human), UniProt P06493); experiment: Kinome-wide profiling; assay type: biochemical; settings: read-out: % Residual Activity (mean)
PAK5 = PAK5 (Homo sapiens (Human), UniProt Q9P286); experiment: Kinome-wide profiling; assay type: biochemical; settings: read-out: % Residual Activity (mean)
HPK1/MAP4K1 = HPK1/MAP4K1 (Homo sapiens (Human), UniProt Q92918); experiment: Kinome-wide profiling; assay type: biochemical; settings: read-out: % Residual Activity (mean)
Aurora A = Aurora A (Homo sapiens (Human), UniProt O14965); experiment: Kinome-wide profiling; assay type: biochemical; settings: read-out: % Residual Activity (mean)
SIK2 = SIK2 (Homo sapiens (Human), UniProt Q9H0K1); experiment: Kinome-wide profiling; assay type: biochemical; settings: read-out: % Residual Activity (mean)
FRK/PTK5 = FRK/PTK5 (Homo sapiens (Human), UniProt P42685); experiment: Kinome-wide profiling; assay type: biochemical; settings: read-out: % Residual Activity (mean)
DDR1 = DDR1 (Homo sapiens (Human), UniProt Q08345); experiment: Kinome-wide profiling; assay type: biochemical; settings: read-out: % Residual Activity (mean)
TBK1 = TBK1 (Homo sapiens (Human), UniProt Q9UHD2); experiment: Kinome-wide profiling; assay type: biochemical; settings: read-out: % Residual Activity (mean)
PAK6 = PAK6 (Homo sapiens (Human), UniProt Q9NQU5); experiment: Kinome-wide profiling; assay type: biochemical; settings: read-out: % Residual Activity (mean)
GCK/MAP4K2 = GCK/MAP4K2 (Homo sapiens (Human), UniProt Q12851); experiment: Kinome-wide profiling; assay type: biochemical; settings: read-out: % Residual Activity (mean)
SNARK/NUAK2 = SNARK/NUAK2 (Homo sapiens (Human), UniProt Q9H093); experiment: Kinome-wide profiling; assay type: biochemical; settings: read-out: % Residual Activity (mean)
CAMK2d = CAMK2d (Homo sapiens (Human), UniProt Q13557); experiment: Kinome-wide profiling; assay type: biochemical; settings: read-out: % Residual Activity (mean)
P38b/MAPK11 = P38b/MAPK11 (Homo sapiens (Human), UniProt Q15759); experiment: Kinome-wide profiling; assay type: biochemical; settings: read-out: % Residual Activity (mean)
LYN = LYN (Homo sapiens (Human), UniProt P07948); experiment: Kinome-wide profiling; assay type: biochemical; settings: read-out: % Residual Activity (mean)
CAMK1b = CAMK1b (Homo sapiens (Human), UniProt Q6P2M8); experiment: Kinome-wide profiling; assay type: biochemical; settings: read-out: % Residual Activity (mean)
LATS2 = LATS2 (Homo sapiens (Human), UniProt Q9NRM7); experiment: Kinome-wide profiling; assay type: biochemical; settings: read-out: % Residual Activity (mean)
WNK1 = WNK1 (Homo sapiens (Human), UniProt Q9H4A3); experiment: Kinome-wide profiling; assay type: biochemical; settings: read-out: % Residual Activity (mean)
TESK2 = TESK2 (Homo sapiens (Human), UniProt Q96S53); experiment: Kinome-wide profiling; assay type: biochemical; settings: read-out: % Residual Activity (mean)
CK2a = CK2a (Homo sapiens (Human), UniProt P68400); experiment: Kinome-wide profiling; assay type: biochemical; settings: read-out: % Residual Activity (mean)
GRK4 = GRK4 (Homo sapiens (Human), UniProt P32298); experiment: Kinome-wide profiling; assay type: biochemical; settings: read-out: % Residual Activity (mean)
PKAcg = PKAcg (Homo sapiens (Human), UniProt P22612); experiment: Kinome-wide profiling; assay type: biochemical; settings: read-out: % Residual Activity (mean)
DYRK4 = DYRK4 (Homo sapiens (Human), UniProt Q9NR20); experiment: Kinome-wide profiling; assay type: biochemical; settings: read-out: % Residual Activity (mean)
NEK9 = NEK9 (Homo sapiens (Human), UniProt Q8TD19); experiment: Kinome-wide profiling; assay type: biochemical; settings: read-out: % Residual Activity (mean)
SNRK = SNRK (Homo sapiens (Human), UniProt Q9NRH2); experiment: Kinome-wide profiling; assay type: biochemical; settings: read-out: % Residual Activity (mean)
PBK/TOPK = PBK/TOPK (Homo sapiens (Human), UniProt Q96KB5); experiment: Kinome-wide profiling; assay type: biochemical; settings: read-out: % Residual Activity (mean)
PIM2 = PIM2 (Homo sapiens (Human), UniProt Q9P1W9); experiment: Kinome-wide profiling; assay type: biochemical; settings: read-out: % Residual Activity (mean)
MEKK3 = MEKK3 (Homo sapiens (Human), UniProt Q99759); experiment: Kinome-wide profiling; assay type: biochemical; settings: read-out: % Residual Activity (mean)
NEK11 = NEK11 (Homo sapiens (Human), UniProt Q8NG66); experiment: Kinome-wide profiling; assay type: biochemical; settings: read-out: % Residual Activity (mean)
IRAK2 = IRAK2 (Homo sapiens (Human), UniProt O43187); experiment: Kinome-wide profiling; assay type: biochemical; settings: read-out: % Residual Activity (mean)
PIM1 = PIM1 (Homo sapiens (Human), UniProt P11309); experiment: Kinome-wide profiling; assay type: biochemical; settings: read-out: % Residual Activity (mean)
JAK3 = JAK3 (Homo sapiens (Human), UniProt P52333); experiment: Kinome-wide profiling; assay type: biochemical; settings: read-out: % Residual Activity (mean)

TESK2, sequence (Q96S53 whole entry): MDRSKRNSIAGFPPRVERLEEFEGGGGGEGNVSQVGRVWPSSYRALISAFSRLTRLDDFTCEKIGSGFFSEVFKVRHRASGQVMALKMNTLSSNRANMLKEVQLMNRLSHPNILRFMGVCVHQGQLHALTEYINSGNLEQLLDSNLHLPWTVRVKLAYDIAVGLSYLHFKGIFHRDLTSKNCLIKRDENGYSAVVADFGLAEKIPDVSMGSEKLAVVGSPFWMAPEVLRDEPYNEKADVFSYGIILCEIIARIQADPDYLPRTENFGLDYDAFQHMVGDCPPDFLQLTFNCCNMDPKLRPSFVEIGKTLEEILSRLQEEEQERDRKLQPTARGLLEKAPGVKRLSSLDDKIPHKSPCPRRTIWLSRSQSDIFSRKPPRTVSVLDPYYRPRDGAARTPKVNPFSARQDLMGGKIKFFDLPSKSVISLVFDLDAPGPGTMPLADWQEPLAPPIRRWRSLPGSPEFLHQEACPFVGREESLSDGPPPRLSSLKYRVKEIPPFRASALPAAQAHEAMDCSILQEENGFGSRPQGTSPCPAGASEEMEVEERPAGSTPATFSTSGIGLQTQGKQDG
TBK1, sequence (Q9UHD2 whole entry): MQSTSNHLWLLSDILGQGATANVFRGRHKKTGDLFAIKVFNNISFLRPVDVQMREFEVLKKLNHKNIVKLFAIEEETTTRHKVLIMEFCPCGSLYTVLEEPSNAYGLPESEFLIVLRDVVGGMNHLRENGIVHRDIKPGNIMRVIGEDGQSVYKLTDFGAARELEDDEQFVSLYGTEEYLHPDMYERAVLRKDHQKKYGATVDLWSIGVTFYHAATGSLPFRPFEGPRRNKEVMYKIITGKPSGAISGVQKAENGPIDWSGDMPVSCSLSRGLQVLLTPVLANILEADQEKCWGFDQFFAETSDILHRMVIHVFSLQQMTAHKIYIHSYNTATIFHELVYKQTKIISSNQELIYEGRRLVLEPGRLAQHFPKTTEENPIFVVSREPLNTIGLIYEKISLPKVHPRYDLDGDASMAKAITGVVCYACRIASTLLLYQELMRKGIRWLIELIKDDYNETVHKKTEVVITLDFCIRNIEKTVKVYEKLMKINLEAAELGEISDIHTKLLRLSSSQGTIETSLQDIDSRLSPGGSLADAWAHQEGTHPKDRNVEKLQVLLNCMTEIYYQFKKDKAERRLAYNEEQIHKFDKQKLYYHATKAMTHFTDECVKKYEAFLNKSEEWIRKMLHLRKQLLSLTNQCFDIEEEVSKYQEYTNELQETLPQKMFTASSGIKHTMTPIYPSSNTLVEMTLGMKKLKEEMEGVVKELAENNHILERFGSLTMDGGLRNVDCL
SNRK, sequence (Q9NRH2 whole entry): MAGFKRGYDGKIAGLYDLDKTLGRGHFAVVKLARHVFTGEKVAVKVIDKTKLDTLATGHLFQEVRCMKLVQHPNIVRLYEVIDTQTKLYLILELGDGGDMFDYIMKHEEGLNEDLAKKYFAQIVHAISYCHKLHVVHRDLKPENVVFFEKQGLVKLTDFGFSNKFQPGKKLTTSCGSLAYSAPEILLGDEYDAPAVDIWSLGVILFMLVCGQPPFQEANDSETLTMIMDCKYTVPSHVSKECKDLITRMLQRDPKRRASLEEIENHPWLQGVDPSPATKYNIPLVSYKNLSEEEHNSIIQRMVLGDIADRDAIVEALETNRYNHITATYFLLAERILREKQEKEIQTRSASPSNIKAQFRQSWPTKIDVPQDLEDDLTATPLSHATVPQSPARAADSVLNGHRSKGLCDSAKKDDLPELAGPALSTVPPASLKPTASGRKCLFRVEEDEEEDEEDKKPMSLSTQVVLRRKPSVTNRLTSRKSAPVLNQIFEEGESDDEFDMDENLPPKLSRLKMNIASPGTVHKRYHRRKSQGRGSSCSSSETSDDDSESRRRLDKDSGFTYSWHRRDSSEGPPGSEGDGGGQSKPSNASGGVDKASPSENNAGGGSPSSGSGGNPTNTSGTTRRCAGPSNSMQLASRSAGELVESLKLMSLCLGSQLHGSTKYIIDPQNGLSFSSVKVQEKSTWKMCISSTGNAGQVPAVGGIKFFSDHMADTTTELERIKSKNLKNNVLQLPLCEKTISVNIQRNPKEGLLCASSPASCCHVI
SIK2, sequence (Q9H0K1 whole entry): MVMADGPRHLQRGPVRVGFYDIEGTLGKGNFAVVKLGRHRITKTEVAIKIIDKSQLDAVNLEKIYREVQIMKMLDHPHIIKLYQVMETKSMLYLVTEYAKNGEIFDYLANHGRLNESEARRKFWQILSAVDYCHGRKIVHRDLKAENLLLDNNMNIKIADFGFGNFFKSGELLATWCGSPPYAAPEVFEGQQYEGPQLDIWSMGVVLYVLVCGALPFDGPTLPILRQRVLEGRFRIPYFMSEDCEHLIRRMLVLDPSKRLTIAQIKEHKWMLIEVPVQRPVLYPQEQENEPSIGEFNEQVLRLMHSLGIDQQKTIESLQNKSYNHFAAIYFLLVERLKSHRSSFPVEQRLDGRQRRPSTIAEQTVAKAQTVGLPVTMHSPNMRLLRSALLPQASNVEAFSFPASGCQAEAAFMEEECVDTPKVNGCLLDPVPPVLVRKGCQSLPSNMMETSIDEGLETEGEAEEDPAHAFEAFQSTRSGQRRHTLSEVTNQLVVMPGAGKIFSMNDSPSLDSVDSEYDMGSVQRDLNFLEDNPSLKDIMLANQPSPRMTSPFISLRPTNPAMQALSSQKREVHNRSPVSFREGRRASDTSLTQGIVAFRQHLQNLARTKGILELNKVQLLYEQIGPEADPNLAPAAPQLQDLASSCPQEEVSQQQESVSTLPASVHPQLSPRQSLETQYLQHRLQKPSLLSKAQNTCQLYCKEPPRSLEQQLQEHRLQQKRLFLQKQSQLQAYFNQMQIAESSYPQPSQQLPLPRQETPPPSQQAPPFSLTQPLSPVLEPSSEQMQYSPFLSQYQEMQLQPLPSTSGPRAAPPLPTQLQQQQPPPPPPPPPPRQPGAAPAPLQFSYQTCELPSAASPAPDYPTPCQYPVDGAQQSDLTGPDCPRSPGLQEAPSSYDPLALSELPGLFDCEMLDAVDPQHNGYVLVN
CYP1A2, sequence (P05177 whole entry): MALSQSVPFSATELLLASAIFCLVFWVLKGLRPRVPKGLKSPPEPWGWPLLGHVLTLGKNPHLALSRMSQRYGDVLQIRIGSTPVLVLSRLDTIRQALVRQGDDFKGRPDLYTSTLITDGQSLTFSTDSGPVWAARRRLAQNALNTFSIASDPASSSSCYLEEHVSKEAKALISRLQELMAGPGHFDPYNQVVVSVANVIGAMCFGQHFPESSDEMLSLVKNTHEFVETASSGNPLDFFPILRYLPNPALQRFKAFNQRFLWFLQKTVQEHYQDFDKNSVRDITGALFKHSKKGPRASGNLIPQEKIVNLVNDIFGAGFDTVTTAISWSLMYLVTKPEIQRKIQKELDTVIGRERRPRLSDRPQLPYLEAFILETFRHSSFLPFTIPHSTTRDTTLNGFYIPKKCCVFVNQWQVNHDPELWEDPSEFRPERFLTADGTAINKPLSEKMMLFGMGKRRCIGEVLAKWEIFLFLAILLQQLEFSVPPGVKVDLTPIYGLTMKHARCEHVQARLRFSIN
PKAcg, sequence (P22612 whole entry): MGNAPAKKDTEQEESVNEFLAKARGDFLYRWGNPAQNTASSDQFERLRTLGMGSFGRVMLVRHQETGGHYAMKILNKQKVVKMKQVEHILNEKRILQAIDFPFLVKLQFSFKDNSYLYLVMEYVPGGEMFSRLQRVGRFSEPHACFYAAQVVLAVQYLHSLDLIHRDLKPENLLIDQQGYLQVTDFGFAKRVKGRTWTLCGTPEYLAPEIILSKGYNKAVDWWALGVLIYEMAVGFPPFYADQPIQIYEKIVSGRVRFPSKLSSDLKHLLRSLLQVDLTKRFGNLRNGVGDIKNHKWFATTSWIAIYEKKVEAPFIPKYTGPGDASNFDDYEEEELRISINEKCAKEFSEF
DDR1, sequence (Q08345 19-913): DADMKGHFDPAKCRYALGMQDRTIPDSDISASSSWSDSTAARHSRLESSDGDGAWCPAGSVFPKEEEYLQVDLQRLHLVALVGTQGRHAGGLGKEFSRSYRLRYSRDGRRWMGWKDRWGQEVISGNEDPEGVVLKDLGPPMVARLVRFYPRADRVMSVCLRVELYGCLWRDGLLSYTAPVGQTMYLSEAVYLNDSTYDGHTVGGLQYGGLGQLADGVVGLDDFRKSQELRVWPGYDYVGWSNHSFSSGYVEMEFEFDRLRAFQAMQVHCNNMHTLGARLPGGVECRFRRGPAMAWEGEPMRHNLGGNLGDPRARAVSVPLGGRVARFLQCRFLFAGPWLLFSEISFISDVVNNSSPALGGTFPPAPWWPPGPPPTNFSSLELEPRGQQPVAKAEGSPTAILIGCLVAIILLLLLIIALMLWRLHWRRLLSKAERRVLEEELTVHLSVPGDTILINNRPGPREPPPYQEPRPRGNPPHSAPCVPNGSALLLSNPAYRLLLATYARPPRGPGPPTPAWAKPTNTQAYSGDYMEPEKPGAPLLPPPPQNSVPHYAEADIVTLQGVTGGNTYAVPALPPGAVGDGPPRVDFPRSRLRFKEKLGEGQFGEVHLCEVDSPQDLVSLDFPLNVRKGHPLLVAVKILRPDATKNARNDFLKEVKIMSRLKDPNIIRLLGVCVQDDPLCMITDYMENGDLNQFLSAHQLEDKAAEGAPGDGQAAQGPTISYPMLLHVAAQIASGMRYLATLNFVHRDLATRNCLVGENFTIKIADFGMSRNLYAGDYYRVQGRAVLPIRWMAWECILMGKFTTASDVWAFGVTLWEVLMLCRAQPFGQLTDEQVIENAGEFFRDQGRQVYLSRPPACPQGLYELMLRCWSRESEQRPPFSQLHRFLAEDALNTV

SMILES: CCn1cnc2c(NCc3ccc(-c4ccccn4)nc3)nc(-c3ccc(N)nc3)nc21 [Example 53, N-([2,2′-bipyridin]-5-ylmethyl)-2-(6-aminopyridin-3-yl)-9-ethyl-9H-purin-6-amine]
- activity at 10 µM (CYP1A2): 74.7%
- remaining activity at 10 µM (CDK2/cyclin A): 1.19%
- remaining activity at 10 µM (CDK1/cyclin B): 2.06%
- remaining activity at 10 µM (CDK18/cyclin Y (PCTK3)): 2.46%
- remaining activity at 10 µM (CDK1/cyclin A): 4.65%
- remaining activity at 10 µM (CHK2): 7.39%
- remaining activity at 10 µM (CDK1/cyclin E): 7.49%
- remaining activity at 10 µM (PAK5): 7.55%
- remaining activity at 10 µM (HPK1/MAP4K1): 30.2%
- remaining activity at 10 µM (Aurora A): 33.4%
- remaining activity at 10 µM (SIK2): 35.9%
- remaining activity at 10 µM (FRK/PTK5): 43.5%
- remaining activity at 10 µM (DDR1): 50.2%
- remaining activity at 10 µM (TBK1): 55%
- remaining activity at 10 µM (PAK6): 57.2%
- remaining activity at 10 µM (GCK/MAP4K2): 58.4%
- remaining activity at 10 µM (SNARK/NUAK2): 59%
- remaining activity at 10 µM (CAMK2d): 61.7%
- remaining activity at 10 µM (P38b/MAPK11): 64.7%
- remaining activity at 10 µM (LYN): 65.7%
- remaining activity at 10 µM (CAMK1b): 66.8%
- remaining activity at 10 µM (LATS2): 77.4%
- remaining activity at 10 µM (WNK1): 82.5%
- remaining activity at 10 µM (TESK2): 83.7%
- remaining activity at 10 µM (CK2a): 84.2%
- remaining activity at 10 µM (GRK4): 88.3%
- remaining activity at 10 µM (PKAcg): 88.4%
- remaining activity at 10 µM (DYRK4): 89.3%
- remaining activity at 10 µM (NEK9): 90%
- remaining activity at 10 µM (SNRK): 93%
- remaining activity at 10 µM (PBK/TOPK): 93.5%
- remaining activity at 10 µM (PIM2): 93.8%
- remaining activity at 10 µM (MEKK3): 94%
- remaining activity at 10 µM (NEK11): 94.2%
- remaining activity at 10 µM (IRAK2): 97.5%
- remaining activity at 10 µM (PIM1): 97.8%
- remaining activity at 10 µM (JAK3): 99.7%
